Patent US8557737B2, “Methods of altering poppy characteristics” (priority 2005, dated 2013)

Assays:
Format in all cases: in vivo, Papaver somniferum
poppy crops [1] = experiment: Example 3: field trial, metsulfuron-methyl alone or tank-mixed with Sunny at early-mid run-up, morphine crop; conditions: COMPOUND 1 120 MG/HA + PULSE .2 % V/V at E-MRU
Method: (§1) All trials were conducted on poppy crops. Seed was treated with Thiram (5.6 g of Thiram 800/kg seed) and Apron (4 g/kg) and sown at a rate of approximately 750 g/ha. Fertilisers were applied at sowing. Most commonly, either 50:50 lime:superphosphate/triple superphosphate at 125 kg/ha, or lime:superphosphate at 250 kg/ha, were mixed with seed and drilled at a depth of 15 mm. In the same operation, NPK (nitrogen:phosphorus:potassium), at various rates, was banded 75 mm below the seed, unless otherwise stated. All crops were subjected to herbicide sprays for weed control, fungicide sprays for disease control, insecticide sprays if appropriate and were irrigated as required.
(§2) All spray applications were made with a precision sprayer, using Silvan Lurmark flat-fan, low-drift nozzles (LD110-0015). Spray equipment was calibrated to deliver 153 L water/ha.
(§3) At harvest, a 2 m×4 m quadrat was placed in each plot (3 m×6 m, unless otherwise stated) and capsules hand-picked from this area. Capsules were broken up, seed and capsule material separated and weighed. Capsule moisture readings were taken with a moisture meter. Alkaloid yield data were calculated on Pesticide Research Manager (version 5 for Windows) using the formulae below. Briefly, capsule weight was adjusted for moisture to a dry weight, 5% of seed weight was added to this (this amount of capsule material regularly occurs in seed samples after processing) to give a capsule weight per plot. Seed weight was adjusted to 95% of crude weight. Straw weights were determined by multiplying dry capsule weight by 1.3 (estimated amount of stem material in a commercial harvest) and adjusted to 11% moisture. When Lontrel was applied to crops exact capsule and seed weight data were entered. Analyses of variance and a Multiple Range Test were performed on data using Pesticide Research Manager. Significant differences (P=0.05) between treatments are denoted by different lower case letters adjacent to treatment means in the tables of results.
Trial to evaluate metsulfuron-methyl (Compound 1) (120 mg/ha) applied alone, or tank-mixed with Sunny (1 L/ha=50 g/ha), in a morphine crop. Treatments were applied to crop at early-mid run-up, plant heights were measured at green capsule stage.

poppy crops [2] = experiment: Example 11: field trial, metsulfuron-methyl, Sunny and metsulfuron-methyl+Sunny at row cover, early run-up, bud-emergence/early hook, morphine crop; conditions: Trt 4: COMPOUND 1 120 MG/HA + PULSE .2% V/V at RC, ERU and BE/EH
Method: as §1, §2, §3
Trial to evaluate applications of metsulfuron-methyl (Compound 1), Sunny and metsulfuron-methyl+Sunny, in a morphine crop. Treatment sprays were applied to crop at row cover, early run-up and bud-emergence/early hook. Plant heights were measured at green capsule stage.

poppy crops [3] = experiment: Example 18: field trial, triasulfuron, mesosulfuron-methyl and metsulfuron-methyl at row cover, mid run-up and early hook, morphine crop; conditions: Trt 2: COMPOUND 1 120 MG/HA + PULSE .2% V/V at RC, MRU and LRU
Method: as §1, §2
as §3, with “Manager.” for “Manager. Significant differences (P=0.05) between treatments are denoted by different lower case letters adjacent to treatment means in the tables of results.”
Trial to evaluate applications of triasulfuron, mesosulfuron-methyl and metsulfuron-methyl, in a morphine crop. […] Plant heights were measured 5 weeks after last application and lodging at capsule harvest.

poppy crops [4] = experiment: Example 4: field trial, metsulfuron-methyl alone or tank-mixed with Sunny at early run-up, morphine crop; conditions: COMPOUND 1 120 MG/HA + PULSE .2 % v/v at ERU
Method: as §1, §2, §3
Trial to evaluate metsulfuron-methyl (Compound 1) (120 mg/ha) alone, or tank-mixed with Sunny (1 L/ha), in a morphine crop. Treatments were applied to crop at early run-up, plant heights were measured at early green capsule stage.

poppy crops [5] = experiment: Example 17: field trial, triasulfuron, mesosulfuron-methyl and metsulfuron-methyl at early run-up and mid-late run-up, morphine crop; conditions: Trt 2: COMPOUND 1 120 MG/HA + PULSE .2% V/V at ERU and M-LRU
Method: as §1, §2
as §3, with “Manager.” for “Manager. Significant differences (P=0.05) between treatments are denoted by different lower case letters adjacent to treatment means in the tables of results.”
Trial to evaluate applications of triasulfuron, mesosulfuron-methyl and metsulfuron-methyl, in a morphine crop. Treatment sprays were applied to with crop at early run-up and mid-late run-up, respectively. Plant heights were measured on 6 weeks after last application and lodging was assessed at capsule harvest.

poppy crops [6] = experiment: Example 19: field trial, sulfosulfuron, thifensulfuron-methyl and metsulfuron-methyl, morphine crop; conditions: 120 MG/HA + PULSE .2 % V/V, applied at M-LRU and LRU-BE
Method: as §1, §2
as §3, with “Manager.” for “Manager. Significant differences (P=0.05) between treatments are denoted by different lower case letters adjacent to treatment means in the tables of results.”
Trial to evaluate applications of sulfosulfuron, thifensulfuron-methyl and metsulfuron-methyl, in a morphine crop. Treatment sprays were applied to crop at mid-late run-up and late-run-up/bud-emergence, respectively. Plant heights were measured some 10 weeks after the last application. Lodging was assessed at capsule harvest.

COC(=O)c1ccccc1S(=O)(=O)NC(=O)Nc1nc(C)nc(OC)n1 [Compound 1, metsulfuron-methyl]
CAPSULE/SEED RATIO (poppy crops [1]): 0.984 ab | CROP WEIGHT (poppy crops [1]): 1.52 ab t/ha | MORPHINE (poppy crops [1]): 20.88 a kg/ha | SEED (poppy crops [1]): 640 c kg/ha | STRAW (poppy crops [1]): 884 ab kg/ha | STRAW MORPHINE (poppy crops [1]): 2.36 a % | PLANT HEIGHT (poppy crops [1]; measured at green capsule stage): 101.0 a cm | CAPSULE/SEED RATIO (poppy crops [2]): 8.488 a | CROP WEIGHT (poppy crops [2]): 3.22 d t/ha | LODGING (poppy crops [2]): 1.2 b % | MORPHINE (poppy crops [2]): 60.39 a kg/ha | SEED (poppy crops [2]): 267 c kg/ha | STRAW (poppy crops [2]): 2955 a kg/ha | STRAW MORPHINE (poppy crops [2]): 2.04 a % | HEIGHT (poppy crops [2]; height at green capsule stage): 99.2 a cm | CAPS/SEED RATIO (poppy crops [3]): 2.543 a | CROP WEIGHT (poppy crops [3]): 2.87 b t/ha | MORPHINE (poppy crops [3]): 46.52 b kg/ha | SEED (poppy crops [3]): 643 c kg/ha | STRAW (poppy crops [3]): 2186 a kg/ha | STRAW MORPHINE (poppy crops [3]): 2.13 c % | PLANT HEIGHT (poppy crops [3]; 5 weeks after last application): 88.0 cm·days | LODGING (poppy crops [3]; at capsule harvest): 1.8 a % | CAPSULE/SEED RATIO (poppy crops [4]): 0.978 a | CROP WEIGHT (poppy crops [4]): 2.30 b t/ha | MORPHINE (poppy crops [4]): 31.32 a kg/ha | SEED (poppy crops [4]): 955 c kg/ha | STRAW (poppy crops [4]): 1349 a kg/ha | STRAW MORPHINE (poppy crops [4]): 2.32 a % | PLANT HEIGHT (poppy crops [4]; measured at early green capsule stage): 82.6 a cm | CAPS/SEED RATIO (poppy crops [5]): 8.976 a | CROP WEIGHT (poppy crops [5]): 2.60 b t/ha | MORPHINE (poppy crops [5]): 49.48 a kg/ha | SEED (poppy crops [5]): 187 c kg/ha | STRAW (poppy crops [5]): 2343 a kg/ha | STRAW MORPHINE (poppy crops [5]): 2.11 c % | PLANT HEIGHT (poppy crops [5]; 6 weeks after last application): 97.0 c cm | LODGING (poppy crops [5]; at capsule harvest): 2.7 b % | CAPSULE/SEED RATIO (poppy crops [6]): 6.352 | CROP WEIGHT (poppy crops [6]): 1.33 t/ha | MORPHINE (poppy crops [6]): 21.65 kg/ha | SEED (poppy crops [6]): 131 kg/ha | STRAW (poppy crops [6]): 1203 kg/ha | STRAW MORPHINE % (poppy crops [6]): 1.80% | PLANT HEIGHT (poppy crops [6]; measured some 10 weeks after last application): 72 cm
